Experimental data published in US20260317324A1, “BIFUNCTIONAL COMPOUNDS FOR DEGRADING BRAF VIA UBIQUITIN PROTEOSOME PATHWAY” (Nurix Therapeutics, Inc., priority 2023, published 2026).

Target: T1, BRAF V600E (Homo sapiens, UniProt P15056, V600E)
T1 construct: endogenous C-terminal HiBiT fusion tag on BRAF V600E allele; endogenous in cells; host or cells: A375 clone 1F10 (CRISPR-Cas9 knock-in of the HiBiT tag; parental A375 from ATCC)
Experiment: BRAF HiBiT degradation assay, C-terminal HiBiT-tagged BRAF V600E A375 cells (clone 1F10), Nano-Glo HiBiT Lytic assay
Format: cell-based
Settings: for Dmax: A-375
Description: An A375 cell line expressing a homozygous V600E mutation was purchased from ATCC (Manassas, VA, USA). An A375 clone 1F10 cell line with an endogenous C-terminal HiBiT fusion tag on BRAF V600E allele was generated internally using CRISPR-Cas9 technology and cultured in DMEM, high glucose supplemented with 10% FBS and 1× GlutaMAX. A HCT-116 BRAF−/− cell line overexpressing the C-terminal HiBiT-tagged G466V, G469A, and D594G mutants were generated by lentiviral transduction, externally at Biosettia Inc (San Diego, CA, USA). The stably transfected cells were cultured in RPMI media supplemented with 10% FBS, 1× GlutaMAX, and 0.25 μg/ml puromycin. DMEM medium, RPMI 1640 medium, GlutaMAX, fetal bovine serum (FBS), and puromycin were purchased from Gibco (Grand Island, NY, USA). HCT-116 BRAF−/− cells were purchased from Horizon Discovery (Waterbeach, UK).
The C-terminal HiBiT tagged BRAF A375 cells (monoclonal cell line, cell clone 1F10) were seeded at a density of 10,000 cells/well in 30 μL media (DMEM, high glucose supplemented with 10% FBS and 1× GlutaMAX) in white opaque 384-well plates (Corning #3570) from column 1 to column 23. The wildtype A375 cells were seeded in column 24 at the same cell density in 30 μL media. Cells were incubated at 37° C. with 5% CO2 for 24 h.
Intermediate compound dilution series (5-point, ranging from 5 mM to 0.5 μM, 10-fold dilutions in DMSO) were prepared in a source plate (Beckman Coulter cat. no. 001-16128). Final compound dilution series (11-point, ranging from 1 μM to 0.01 nM, half-log dilutions in DMSO) were stamped into the assay plate (Corning #3570, column 1-11 and 12-22) using the Echo Acoustic Liquid Handler (Beckman Coulter). Each compound was plated in duplicate, and the total volume of compound DMSO solution was 60 nL/well (0.2% final DMSO concentration). DMSO was included in wells A23-L23 and A24-L24. The DMSO-treated HiBiT-tagged samples served as Negative Control (NC) and the DMSO-treated wildtype samples served as Background Control (BC) for the HiBiT assay.
HiBiT signal was measured by a Nano-Glo HiBiT Lytic assay (Promega cat. no. N3050). HiBiT lytic detection reagent (Nano-Glo HiBiT Lytic Buffer with 1:50 Nano-Glo HiBiT Lytic Substrate and 1:100 LgBiT Protein, 40 μL) was added using Bravo. The mixture was incubated at room temperature, in the dark, and with gentle shaking for 10 min. Luminesce units (LU) were read on an EnVision plate reader 2105 (Perkin Elmer).
Percent protein remaining and viability remaining per sample were calculated as follows: […]
% Protein remaining values were plotted as a function of compound concentration. XC50 (DC50) values were determined by fitting curves using the following equation:
For the HiBiT degradation assay, the key parameters reported include: • The dose of compound that produces 50% degradation (DC50 at 50%): • DC50 at 50%: the Fitted X value (Conc.) at Y=50 (response) • Observed Dmax (Obs. Dmax) is the percentage protein degraded at maximal compound effect relative to DMSO-treated control: […]

[1] = A375 (BRAF V600E), DC50 at 50%: fitted conc. at Y=50
[2] = A375 (BRAF V600E), percentage protein degraded at maximal compound effect relative to DMSO

T1 sequence (P15056 whole entry V600E, the tested form may be a part): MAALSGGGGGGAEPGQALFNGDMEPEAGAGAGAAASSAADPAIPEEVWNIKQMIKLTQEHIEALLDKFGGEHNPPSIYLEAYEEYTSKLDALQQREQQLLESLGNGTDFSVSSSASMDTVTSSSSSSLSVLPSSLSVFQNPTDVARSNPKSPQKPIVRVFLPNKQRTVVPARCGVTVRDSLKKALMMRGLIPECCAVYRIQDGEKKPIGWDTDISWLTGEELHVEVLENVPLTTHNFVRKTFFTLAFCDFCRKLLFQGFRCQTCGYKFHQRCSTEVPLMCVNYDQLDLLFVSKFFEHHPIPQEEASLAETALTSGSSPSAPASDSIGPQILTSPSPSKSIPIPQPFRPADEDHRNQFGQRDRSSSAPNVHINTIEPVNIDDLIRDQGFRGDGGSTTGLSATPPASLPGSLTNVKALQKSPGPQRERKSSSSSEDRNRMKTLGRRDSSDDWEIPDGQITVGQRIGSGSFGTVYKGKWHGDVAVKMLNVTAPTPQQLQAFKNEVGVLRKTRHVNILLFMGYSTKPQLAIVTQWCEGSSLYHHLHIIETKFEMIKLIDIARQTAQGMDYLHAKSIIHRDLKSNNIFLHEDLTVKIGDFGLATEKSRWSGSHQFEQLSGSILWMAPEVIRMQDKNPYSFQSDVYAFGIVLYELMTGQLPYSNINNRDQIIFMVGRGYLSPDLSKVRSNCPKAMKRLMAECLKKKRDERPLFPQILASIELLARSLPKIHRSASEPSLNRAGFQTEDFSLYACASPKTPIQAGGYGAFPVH

| Compound | DC50 [1] | Dmax [2] | DC50 (A375 (BRAF V600E, Class 1), DC50 at 50% degradation) | Dmax (A375 (BRAF V600E, Class 1), observed Dmax, % protein degraded relative to DMSO control) |
| --- | --- | --- | --- | --- |
| CCCS(=O)(=O)Nc1cccc(-c2nc(C(C)(C)C)sc2-c2ccnc(Nc3cccc(C4CCN(CC5(C)CCN(c6ccc(C7CCC(=O)NC7=O)cn6)CC5)CC4)c3)n2)c1F (racemic) [Compound 73, Rac-N-[3-(2-tert-butyl-5-{2-[(3-{1-[(1-{5-[(3R)-2,6-dioxopiperidin-3-yl]pyridin-2-yl}-4-methylpiperidin-4-yl)methyl]piperidin-4-yl}phenyl)amino]pyrimidin-4-yl}-1,3-thiazol-4-yl)-2-fluorophenyl]propane-1-sulfonamide] | 50 to 500 nM | 30 to 70% | – | – |
| CCCS(=O)(=O)Nc1cccc(-c2nc(C(C)(C)C)sc2-c2ccnc(NCC(C)(C)C3CCN(CC4CCN(c5ccc([C@H]6CCC(=O)NC6=O)cc5)CC4)CC3)n2)c1F [Compound 144, N-[3-(2-tert-butyl-5-{2-[(2-{1-[(1-{4-[(3R)-2,6-dioxopiperidin-3-yl]phenyl}piperidin-4-yl)methyl]piperidin-4-yl}-2-methylpropyl)amino]pyrimidin-4-yl}-1,3-thiazol-4-yl)-2-fluorophenyl]propane-1-sulfonamide] | 50 to 500 nM | 30 to 70% | – | – |
| CCCS(=O)(=O)Nc1cccc(-c2nc(C3CCC4(CC3)CCN(CC3CCN(c5ccc(C6CCC(=O)NC6=O)cc5)CC3)CC4)sc2-c2ccnc(N)n2)c1F (racemic) [Compound 256, Rac-N-{3-[5-(2-aminopyrimidin-4-yl)-2-{3-[(1-{4-[(3R)-2,6-dioxopiperidin-3-yl]phenyl}piperidin-4-yl)methyl]-3-azaspiro[5.5]undecan-9-yl}-1,3-thiazol-4-yl]-2-fluorophenyl}propane-1-sulfonamide] | – | – | 50 to 500 nM | 30 to 70% |
| CCCS(=O)(=O)Nc1cccc(-c2nc(C(C)(C)C)sc2-c2ccnc(Nc3cnn(C4CCN(C(=O)[C@@H]5CCN(c6ccc(C7CCC(=O)NC7=O)cn6)C5)CC4)c3)n2)c1F (mixture of isomers) [Compound 106, N-[3-(2-tert-butyl-5-{2-[(1-{1-[(3R)-1-{5-[(3RS)-2,6-dioxopiperidin-3-yl]pyridin-2-yl}pyrrolidine-3-carbonyl]piperidin-4-yl}-1H-pyrazol-4-yl)amino]pyrimidin-4-yl}-1,3-thiazol-4-yl)-2-fluorophenyl]propane-1-sulfonamide] | 50 to 500 nM | 30 to 70% | – | – |
| CCCS(=O)(=O)Nc1cccc(-c2nc(C3(C)CCN(C(=O)C4CCN(CC5CCN(c6ccc(C7CCC(=O)NC7=O)cn6)CC5)CC4)CC3)sc2-c2ccnc(N)n2)c1F (racemic) [Compound 218, Rac-N-{3-[5-(2-aminopyrimidin-4-yl)-2-(1-{1-[(1-{5-[(3R)-2,6-dioxopiperidin-3-yl]pyridin-2-yl}piperidin-4-yl)methyl]piperidine-4-carbonyl}-4-methylpiperidin-4-yl)-1,3-thiazol-4-yl]-2-fluorophenyl}propane-1-sulfonamide] | 50 to 500 nM | > 70% | – | – |
| CCCS(=O)(=O)Nc1cccc(-c2nc(C(C)(C)C)sc2-c2ccnc(Nc3ccc(C4CCN(CC5CCN(c6ccc(C(=O)NC7CCC(=O)NC7=O)nc6)CC5)CC4)cc3)n2)c1F (racemic) [Compound 169, Rac-5-{4-[(4-{4-[(4-{2-tert-butyl-4-[2-fluoro-3-(propane-1-sulfonamido)phenyl]-1,3-thiazol-5-yl}pyrimidin-2-yl)amino]phenyl}piperidin-1-yl)methyl]piperidin-1-yl}-N-[(3R)-2,6-dioxopiperidin-3-yl]pyridine-2-carboxamide] | 50 to 500 nM | 30 to 70% | – | – |
| CCCS(=O)(=O)Nc1cccc(-c2nc(C3CCN(C(=O)CN4CCN(c5ccc6c(c5)C(=O)N(C5CCC(=O)NC5=O)C6=O)CC4)CC3)sc2-c2ccnc(N)n2)c1F (racemic) [Compound 233, Rac-N-{3-[5-(2-aminopyrimidin-4-yl)-2-{1-[2-(4-{2-[(3R)-2,6-dioxopiperidin-3-yl]-1,3-dioxo-2,3-dihydro-1H-isoindol-5-yl}piperazin-1-yl)acetyl]piperidin-4-yl}-1,3-thiazol-4-yl]-2-fluorophenyl}propane-1-sulfonamide] | 10 to 50 nM | 30 to 70% | – | – |
| CCCS(=O)(=O)Nc1cccc(-c2cn(-c3ccc(C(=O)N4CCN(CC5CCN(c6ccc([C@@H]7CCC(=O)NC7=O)cc6)CC5)CC4)cc3)nc2-c2ccncc2)c1F [Compound 12, N-{3-[1-(4-{4-[(1-{4-[(3S)-2,6-dioxopiperidin-3-yl]phenyl}piperidin-4-yl)methyl]piperazine-1-carbonyl}phenyl)-3-(pyridin-4-yl)-1H-pyrazol-4-yl]-2-fluorophenyl}propane-1-sulfonamide] | 50 to 500 nM | 30 to 70% | – | – |

Now from value to molecule:

| DC50 [1] | Dmax [2] | DC50 (A375 (BRAF V600E, Class 1), DC50 at 50% degradation) | Dmax (A375 (BRAF V600E, Class 1), observed Dmax, % protein degraded relative to DMSO control) | Compound |
| --- | --- | --- | --- | --- |
| 10 to 50 nM | > 70% | – | – | CCCS(=O)(=O)Nc1cccc(-c2nc(C(C)(C)C)sc2-c2ccnc(Nc3ccc(C4CCN(C(=O)C5CCN(c6ccc(C7CCC(=O)NC7=O)cn6)CC5)CC4)cc3)n2)c1F (racemic) [Compound 156, Rac-N-(3-{2-tert-butyl-5-[2-({4-[1-(1-{5-[(3R)-2,6-dioxopiperidin-3-yl]pyridin-2-yl}piperidine-4-carbonyl)piperidin-4-yl]phenyl}amino)pyrimidin-4-yl]-1,3-thiazol-4-yl}-2-fluorophenyl)propane-1-sulfonamide] |
| < 10 nM | > 70% | – | – | CCCS(=O)(=O)Nc1cccc(-c2nc(C3CCN(C(=O)C4CCN(C(=O)C5CCN(c6ccc(C7CCC(=O)NC7=O)cc6)CC5)CC4)CC3)sc2-c2ccncn2)c1F (racemic) [Compound 199, Rac-N-[3-(2-{1-[1-(1-{4-[(3R)-2,6-dioxopiperidin-3-yl]phenyl}piperidine-4-carbonyl)piperidine-4-carbonyl]piperidin-4-yl}-5-(pyrimidin-4-yl)-1,3-thiazol-4-yl)-2-fluorophenyl]propane-1-sulfonamide] |
| 10 to 50 nM | > 70% | – | – | CCCS(=O)(=O)Nc1cccc(-c2nc(C)sc2-c2ccnc(Nc3ccc(C4CCN(C(=O)C5CCN(c6ccc(C7CCC(=O)NC7=O)cn6)CC5)CC4)cc3)n2)c1F (racemic) [Compound 55, Rac-N-(3-{5-[2-({4-[1-(1-{5-[(3R)-2,6-dioxopiperidin-3-yl]pyridin-2-yl}piperidine-4-carbonyl)piperidin-4-yl]phenyl}amino)pyrimidin-4-yl]-2-methyl-1,3-thiazol-4-yl}-2-fluorophenyl)propane-1-sulfonamide] |
| 10 to 50 nM | > 70% | – | – | CCCS(=O)(=O)Nc1cccc(-c2nc(C)sc2-c2ccnc(Nc3ccc(N4CCN(CC5(F)CCN(c6ccc(C7CCC(=O)NC7=O)cc6)CC5)CC4)cc3)n2)c1F (racemic) [Compound 31, Rac-N-[3-(5-{2-[(4-{4-[(1-{4-[(3R)-2,6-dioxopiperidin-3-yl]phenyl}-4-fluoropiperidin-4-yl)methyl]piperazin-1-yl}phenyl)amino]pyrimidin-4-yl}-2-methyl-1,3-thiazol-4-yl)-2-fluorophenyl]propane-1-sulfonamide] |
| 10 to 50 nM | > 70% | – | – | CCCS(=O)(=O)Nc1cccc(-c2nc(C(C)(C)C)sc2-c2ccnc(Nc3ccc(N4CCN(C(=O)[C@H]5CC[C@H](Oc6ccc(C7CCC(=O)NC7=O)cn6)CC5)CC4)c(F)c3)n2)c1F (mixture of isomers) [Compound 50, N-[3-(2-tert-butyl-5-{2-[(3-fluoro-4-{4-[(1r,4r)-4-({5-[(3RS)-2,6-dioxopiperidin-3-yl]pyridin-2-yl}oxy)cyclohexanecarbonyl]piperazin-1-yl}phenyl)amino]pyrimidin-4-yl}-1,3-thiazol-4-yl)-2-fluorophenyl]propane-1-sulfonamide] |
